US9757368B2, “Anti-inflammatory agents” (Resverlogix Corp., priority 2009, dated 2017)

What was measured:
hIL-6 mRNA = assay: Quantification of hIL-6 mRNA in LPS-stimulated U937 macrophages (real-time PCR); assay type: cell-based, human; design: key: Active: an active compound is one that causes a ≧20% inhibition in IL-6 mRNA at a concentration less than or equal to 10 μM; settings: U937 cells differentiated with PMA, 1 h pretreatment, LPS 1 μg/mL, 3 h; IL-6 mRNA normalised to hCyclophilin; compound ≤10 μM
Description: In this example, hIL-6 mRNA in tissue culture cells was quantitated to measure the transcriptional inhibition of hIL-6 when treated with a compound of the invention.
A human leukemic monocytic lymphoma cell line (U937) was plated (3.2×10^5 cells per well) in a 96-well plate in 100 μL RPMI 1640+10% FBS, and differentiated into macrophages with PMA (60 ng/mL) for 3 days prior to the addition of the compound of interest. The cells were pretreated for 1 h with the test compound in DMSO prior to stimulation with lipopolysaccharide from Escherichia coli at 1 μg/mL. The cells were incubated for 3 h before harvest. At the time of harvest, cells were rinsed in 200 μL PBS. Cell lysis solution (70 μL) was added the cells for 10 min, and mRNA was then prepared using the “mRNA Catcher PLUS plate” (Invitrogen), according to the protocol supplied.
The eluted mRNA isolated was then used in a one-step quantitative real-time PCR reaction, using components of the UltraSense kit together with Applied Biosystems primer-probe mixes. 10 μL of template was amplified with 1.75 μL of IL-6 primer-probe, and 1 μL of hCyclophilin primer probe, and the reaction was carried out in multiplex. Real-time PCR data was analyzed, normalizing the Ct values for hIL-6 to hCyclophilin, prior to determining the fold induction of each unknown sample, relative to the control.

hVCAM-1 mRNA = assay: Quantification of hVCAM-1 mRNA in TNF-α-stimulated HUV-EC-C cells (real-time PCR); assay type: cell-based, human; design: key: Active: an active compound is one that causes a ≧20% inhibition in VCAM-1 mRNA at a concentration less than or equal to 10 μM; settings: 1 h pretreatment, TNF-α 10 ng/mL, 24 h, VCAM-1 mRNA normalised to hCyclophilin, compound ≤10 μM
Description: In this example, hVCAM-1 mRNA in tissue culture cells was quantitated to measure the transcriptional inhibition of hVCAM when treated with a compound of the invention.
A human umbilical vein endothelial cell line (HUV-EC-C) was plated in a 96-well plate (5.0×10^3 cells/well) in 100 μL EGM complete media and incubated for 24 h prior to the addition of the compound of interest. The cells were pretreated for 1 h with the test compound in DMSO prior to stimulation with tumor necrosis factor-α (10 ng/mL). The cells were incubated for an additional 24 h before harvest. At time of harvest, the cells were rinsed in 200 μL PBS, and cell lysis solution (70 μL) was then added the cells for 10 min. mRNA was then prepared using the “mRNA Catcher PLUS plate” (Invitrogen), according to the protocol supplied.
The eluted mRNA was then used in a one-step quantitative real-time PCR reaction, using components of the UltraSense kit together with Applied Biosystems primer-probe mixes. 10 μL of template was amplified with 1.75 μL of hVCAM-1 primer-probe, and 1 μL of hCyclophilin primer probe, and the reaction was carried out in multiplex. Real-time PCR data was analyzed, normalizing the Ct values for hVCAM-1 to hCyclophilin, prior to determining the fold induction of each unknown sample, relative to the control.

| Structure (SMILES) | Inhibition of IL-6 expression (hIL-6 mRNA) | Inhibition of VCAM-1 expression (hVCAM-1 mRNA) |
| --- | --- | --- |
| COc1cc(OCCOCc2ccccc2)cc2nc(-c3cc(C)c(O)c(C)c3)[nH]c(=O)c12 [Example 5, 7-(2-benzyloxy-ethoxy)-2-(4-hydroxy-3,5-dimethyl-phenyl)-5-methoxy-3H-quinazolin-4-one] | Active | Active |
| Cc1cc(-c2nc3cc(OCCN(C)C)ccc3c(=O)[nH]2)cc(C)c1O [Example 7, 7-(2-dimethylamino-ethoxy)-2-(4-hydroxy-3,5-dimethylphenyl)-3H-quinazolin-4-one] | Active | Active |
| Cc1cc(-c2nc3ccc(Nc4ccccn4)cc3c(=O)[nH]2)cc(C)c1O [Example 9, 2-(4-hydroxy-3,5-dimethyl-phenyl)-6-(pyridin-2-ylamino)-3H-quinazolin-4-one] | Active | Active |
| Cc1cc(-c2nc3ccc(CN4CCN(C)CC4)cc3c(=O)[nH]2)cc(C)c1O [Example 10, 2-(4-hydroxy-3,5-dimethylphenyl)-6-((4-methylpiperazin-1-yl)methyl)quinazolin-4(3H)-one] | Active | Active |
| Cc1cc(-c2nc3cc(F)cc(F)c3c(=O)[nH]2)cc(C)c1OCCO [Example 15, 5,7-difluoro-2-(4-(2-hydroxyethoxy)-3,5-dimethylphenyl)quinazolin-4(3H)-one] | Active | Inactive |
| Cc1cc(-c2nc3ccc(CN4CCOCC4)cc3c(=O)[nH]2)cc(C)c1OCCO [Example 17, 2-[4-(2-hydroxyethoxy)-3,5-dimethyl-phenyl]-6-morpholin-4-ylmethyl-3H-quinazolin-4-one] | Active | Inactive |
| COc1cc(OC)c2c(=O)[nH]c(-c3cc(C)c(OCC(O)CO)c(C)c3)nc2c1 (stereo not drawn) [Example 18, 2-[4-(2,3-Dihydroxy-propoxy)-3,5-dimethyl-phenyl]-5,7-dimethoxy-3H-quinazolin-4-one] | Active | Active |
| COc1cc(OC)c2c(=O)[nH]c(-c3ccc(OCCO)cc3)nc2c1 [Example 20, 2-[4-(2-hydroxy-ethoxy)-phenyl]-5,7-dimethoxy-3H-quinazolin-4-one] | Active | Active |
| COc1cc(OC)c2c(=O)[nH]c(-c3ccc(OCCO)c4ccccc34)nc2c1 [Example 21, 2-[4-(2-hydroxy-ethoxy)-naphthalen-1-yl]-5,7-dimethoxy-3H-quinazolin-4-one] | Active | Inactive |
| COc1cc(OC)c2c(=O)[nH]c(-c3ccc4oc(CO)cc4c3)nc2c1 [Example 22, 2-(2-hydroxymethyl-benzofuran-5-yl)-5,7-dimethoxy-3H-quinazolin-4-one] | Active | Active |
| COc1cc(OCCOCc2ccccc2)cc2nc(-c3cc(C)c(OCCO)c(C)c3)[nH]c(=O)c12 [Example 23, 7-(2-benzyloxy-ethoxy)-2-[4-(2-hydroxy-ethoxy)-3,5-dimethyl-phenyl]-5-methoxy-3H-quinazolin-4-one] | Active | Active |
| CNC(=O)COc1c(C)cc(-c2nc3cc(OC)cc(OC)c3c(=O)[nH]2)cc1C [Example 25, 2-[4-(5,7-dimethoxy-4-oxo-3,4-dihydro-quinazolin-2-yl)-2,6-dimethyl-phenoxy]-N-methyl-acetamide] | Active | Active |
| COc1ccc(NC(=O)COc2c(C)cc(-c3nc4cc(OC)cc(OC)c4c(=O)[nH]3)cc2C)cc1 [Example 26, 2-[4-(5,7-Dimethoxy-4-oxo-3,4-dihydro-quinazolin-2-yl)-2,6-dimethyl-phenoxy]-N-(4-methoxy-phenyl)-acetamide] | Active | Active |
| COc1cc(OC)c2c(=O)[nH]c(-c3cc(C)c(OCCCCO)c(C)c3)nc2c1 [Example 28, 2-[4-(4-hydroxy-butoxy)-3,5-dimethyl-phenyl]-5,7-dimethoxy-3H-quinazolin-4-one] | Active | Active |
| Cc1cc(-c2nc3cc(Cl)ccc3c(=O)[nH]2)cc(C)c1OCCO [Example 29, 7-chloro-2-(4-(2-hydroxyethoxy)-3,5-dimethylphenyl)quinazolin-4(3H)-one] | Active | Active |
| Cc1cc(-c2nc3c(Cl)cccc3c(=O)[nH]2)cc(C)c1OCCO [Example 30, 8-chloro-2-(4-(2-hydroxyethoxy)-3,5-dimethylphenyl)quinazolin-4(3H)-one] | Active | Inactive |
| COc1cccc2c(=O)[nH]c(-c3cc(C)c(OCCO)c(C)c3)nc12 [Example 31, 2-(4-(2-hydroxyethoxy)-3,5-dimethylphenyl)-8-methoxyquinazolin-4(3H)-one] | Active | Active |
| Cc1cc(-c2nc3cccc(Cl)c3c(=O)[nH]2)cc(C)c1OCCO [Example 32, 5-chloro-2-(4-(2-hydroxyethoxy)-3,5-dimethylphenyl)quinazolin-4(3H)-one] | Active | Active |
| COc1ccc2c(=O)[nH]c(-c3cc(C)c(OCCO)c(C)c3)nc2c1 [Example 33, 2-(4-(2-hydroxyethoxy)-3,5-dimethylphenyl)-7-methoxyquinazolin-4(3H)-one] | Active | Active |
| Cc1cc(-c2nc3ccc(CN4CCN(C)CC4)cc3c(=O)[nH]2)cc(C)c1OCCO [Example 34, 2-(4-(2-hydroxyethoxy)-3,5-dimethylphenyl)-6-((4-methylpiperazin-1-yl)methyl)quinazolin-4(3H)-one] | Active | Active |
| COc1cc(OC)c2c(=O)[nH]c(-c3ccc(OCCNc4nnc(-c5ccccc5)[nH]4)c(C)c3)nc2c1 [Example 35, 5,7-Dimethoxy-2-{3-methyl-4-[2-(5-phenyl-4H-[1,2,4]triazol-3-ylamino)-ethoxy]-phenyl}-3H-quinazolin-4-one] | Active | Active |
| COc1cc(OC)c2c(=O)[nH]c(-c3cc(C)c(OCCNc4nc(C)no4)c(C)c3)nc2c1 [Example 36, 2-{3,5-Dimethyl-4-[2-(3-methyl-[1,2,4]oxadiazol-5-ylamino)-ethoxy]-phenyl}-5,7-dimethoxy-3H-quinazolin-4-one] | Active | Active |
| COc1cc(OC)c2c(=O)[nH]c(-c3cc(C)c(OCCNC(C)=O)c(C)c3)nc2n1 [Example 37, N-{2-[4-(5,7-dimethoxy-4-oxo-3,4-dihydro-pyrido[2,3-d]pyrimidin-2-yl)-2,6-dimethyl-phenoxy]-ethyl}-acetamide] | Active | Inactive |
| COc1cc(OC)c2c(=O)[nH]c(-c3cc(C)c(CNC(C)=O)c(C)c3)nc2c1 [Example 38, N-(4-(5,7-dimethoxy-4-oxo-3,4-dihydroquinazolin-2-yl)-2,6-dimethylbenzyl)acetamide] | Active | Active |
